Values of other authors in patent publication US7422793B2, “Non-toxic corrosion-protection rinses and seals based on rare earth elements” (University of Dayton, priority 2002, dated 2008).
In brackets after ≈: the same amount, converted by molar mass. Read-outs that look alike come from different tables or passages of the source.

Details: cited from earlier work
[1] = fluoride preparative agents, at or near 25° C. and at or near pH 7

[F][Sb-]([F])([F])([F])([F])[F].[NH4+] [Ammonium fluoroantimonate]
Solubility in Water (pH 7): 4.7 × 10^0 mole/L

F[Si-2](F)(F)(F)(F)F.[NH4+].[NH4+] [Ammonium hexafluorosilicate]
Solubility in Water (pH 7): 1.04 × 10^0 mole/L

[F][Sb]([F])([F])([F])[F] [Antimony (V) fluoride]
Solubility in Water (pH 7): 1 × 10^0 mole/L

O=[As](=O)O[As](=O)=O [Arsenic pentoxide]
Solubility in Water (pH 7): 6.5 × 10^0 mole/L

[O-][Cl+3]([O-])([O-])[O-].[O]=[Bi+] [Bismuthyl perchlorate]
Solubility in Water (pH 7): 0.1 mol/L

[Ca+2].[O-][Cl+2]([O-])[O-].[O-][Cl+2]([O-])[O-] [Calcium chlorate]
Solubility in Water (pH 7): 7.4 × 10^0 mole/L

F[Si-2](F)(F)(F)(F)F.[Ca+2] [Calcium hexafluorosilicate]
Solubility in Water (pH 7): 0.5 mol/L

[Ca+2].[O-][Cl+3]([O-])([O-])[O-].[O-][Cl+3]([O-])([O-])[O-] [Calcium perchlorate]
Solubility in Water (pH 7): 7.9 × 10^0 mole/L

[Ce+3].[O-][Cl+3]([O-])([O-])[O-].[O-][Cl+3]([O-])([O-])[O-].[O-][Cl+3]([O-])([O-])[O-] [Cerium (III) perchlorate]
Solubility in Water (pH 7): 2.0 × 10^0 mole/L

[Ce+4].[O-][Cl+3]([O-])([O-])[O-].[O-][Cl+3]([O-])([O-])[O-].[O-][Cl+3]([O-])([O-])[O-].[O-][Cl+3]([O-])([O-])[O-] [Cerium (IV) perchlorate]
Solubility in Water (pH 7): 1.0 × 10^0 mole/L

[Cs+].[O-][Cl+2]([O-])[O-] [Cesium chlorate]
Solubility in Water (pH 7): 0.29 mol/L

[Cs+].[Cs+].[F][Nb-2]([F])([F])([F])([F])([F])[F] [Cesium heptafluoroniobate]
Solubility in Water (pH 7): 0.3 mol/L

[Cs+].[Cs+].[F][Ta-2]([F])([F])([F])([F])([F])[F] [Cesium heptafluorotantalate]
Solubility in Water (pH 7): 0.3 mol/L

[Cs+].[Cs+].[F][Hf-2]([F])([F])([F])([F])[F] [Cesium hexafluorohafnate]
Solubility in Water (pH 7): 0.17 mol/L

[Cs+].[Cs+].[F][Sn-2]([F])([F])([F])([F])[F] [Cesium hexafluorostannate]
Solubility in Water (pH 7): 0.079 mol/L

[Cs+].[Cs+].[F][Ti-2]([F])([F])([F])([F])[F] [Cesium hexafluorotitanate]
Solubility in Water (pH 7): 0.055 mol/L

[Cs+].[Cs+].[F][Zr-2]([F])([F])([F])([F])[F] [Cesium hexafluorozirconate]
Solubility in Water (pH 7): 0.112 mol/L

[Cs+].[Cs+].[O]=[Mo](=[O])([O-])[O-] [Cesium molybdate]
Solubility in Water (pH 7): 4.8 × 10^0 mole/L

[Cs+].[O-][Cl+3]([O-])([O-])[O-] [Cesium perchlorate]
Solubility in Water (pH 7): 0.086 mol/L

[Cs+].[O-][I+3]([O-])([O-])[O-] [Cesium periodate]
Solubility in Water (pH 7): 0.066 mol/L

[Cs+].[Cs+].[O]=[Sn]([O-])[O-] [Cesium stannate]
Solubility in Water (pH 7): 1 × 10^0 mole/L

O=[Te](=O)([O-])[O-].[Cs+].[Cs+] [Cesium tellurate]
Solubility in Water (pH 7): 0.01 mol/L

[Cs+].[O]=[V](=[O])[O-] [Cesium vanadate]
Solubility in Water (pH 7): 0.5 mol/L

CC[N+](CC)(CC)CC.[O-][Cl+3]([O-])([O-])[O-] [Et4N^+ perchlorate]
Solubility in Water (pH 7): 0.5 mol/L

OO [Hydrogen peroxide]
Solubility in Water (oxidizer sources, at or near 25° C. and at or near pH 7): 60 wt. %

[O-][I+2]([O-])O[I+2]([O-])[O-] [Iodine pentoxide]
Solubility in Water (pH 7): 5.6 × 10^0 mole/L

[Li+].[O-][Cl+2]([O-])[O-] [Lithium chlorate]
Solubility in Water (pH 7): 55 mol/L

[F][Nb-2]([F])([F])([F])([F])([F])[F].[Li+].[Li+] [Lithium heptafluoroniobate]
Solubility in Water (pH 7): 0.5 mol/L

[F][Ta-2]([F])([F])([F])([F])([F])[F].[Li+].[Li+] [Lithium heptafluorotantalate]
Solubility in Water (pH 7): 0.5 mol/L

[F][Sb-]([F])([F])([F])([F])[F].[Li+] [Lithium hexafluoroantimonate]
Solubility in Water (pH 7): 1 × 10^0 mole/L

[F][Hf-2]([F])([F])([F])([F])[F].[Li+].[Li+] [Lithium hexafluorohafnate]
Solubility in Water (pH 7): 0.1 mol/L

F[Si-2](F)(F)(F)(F)F.[Li+].[Li+] [Lithium hexafluorosilicate]
Solubility in Water [1]: 3.8 × 10^0 mole/L

[F][Sn-2]([F])([F])([F])([F])[F].[Li+].[Li+] [Lithium hexafluorostannate]
Solubility in Water (pH 7): 0.01 mol/L

[F][Ti-2]([F])([F])([F])([F])[F].[Li+].[Li+] [Lithium hexafluorotitanate]
Solubility in Water (pH 7): 0.05 mol/L

[F-].[F-].[F][Zr]([F])([F])[F].[Li+].[Li+] [Lithium hexafluorozirconate]
Solubility in Water (pH 7): 0.08 mol/L

[Li+].[Li+].[O]=[Mo](=[O])([O-])[O-] [Lithium molybdate]
Solubility in Water (pH 7): 10 mol/L

[Li+].[Nb+5].[O-2].[O-2].[O-2] [Lithium niobate]
Solubility in Water (pH 7): 0.1 mol/L

O=N[O-].[Li+] [Lithium nitrite]
Solubility in Water (pH 7): 28 mol/L

[Li+].[O-][Cl+3]([O-])([O-])[O-] [Lithium perchlorate]
Solubility in Water (pH 7): 5.6 × 10^0 mole/L

[Li+].[Li+].[O-][O-] [Lithium peroxide]
Solubility in Water (pH 7): 1 × 10^0 mole/L

[Li+].[Li+].[O]=[Sn]([O-])[O-] [Lithium stannate]
Solubility in Water (pH 7): 5 × 10^0 mole/L

[Li+].[O]=[Ta](=[O])[O-] [Lithium tantalate]
Solubility in Water (pH 7): 0.01 mol/L

O=[Te](=O)([O-])[O-].[Li+].[Li+] [Lithium tellurate]
Solubility in Water (pH 7): 1 × 10^0 mole/L

F[B-](F)(F)F.[Li+] [Lithium tetrafluoroborate]
Solubility in Water (pH 7): 5 × 10^0 mole/L

[Mg+2].[O-][Cl+2]([O-])[O-].[O-][Cl+2]([O-])[O-] [Magnesium chlorate]
Solubility in Water (pH 7): 4.3 × 10^0 mole/L

F[Si-2](F)(F)(F)(F)F.[Mg+2] [Magnesium hexafluorosilicate]
Solubility in Water [1]: 3.9 × 10^0 mole/L

[Mg+2].[O]=[Mo](=[O])([O-])[O-] [Magnesium molybdate]
Solubility in Water (pH 7): 0.74 mol/L

O=C([O-])c1ccccc1C(=O)O[O-].[Mg+2] [Magnesium monoperoxyphthalate]
Solubility in Water (pH 7): 10 mol/L

O=N[O-].O=N[O-].[Mg+2] [Magnesium nitrite]
Solubility in Water (pH 7): 1 × 10^0 mole/L

[Mg+2].[O-][Cl+3]([O-])([O-])[O-].[O-][Cl+3]([O-])([O-])[O-] [Magnesium perchlorate]
Solubility in Water (pH 7): 4.4 × 10^0 mole/L

[O]=[Mo](=[O])([OH])[OH] [Molybdic acid]
Solubility in Water (pH 7): 0.0074 mol/L

O=C(O)c1ccccc1C(=O)OO [Monoperoxyphthalic acid]
Solubility in Water (pH 7): 10 mol/L (≈ 1820 mg/mL)

[O-][Cl+3]([O-])([O-])O [Perchloric acid]
Solubility in Water (pH 7): 75 wt. %

[K+].[O]=[Al][O-] [Potassium aluminate]
Solubility in Water (pH 7): 1 × 10^0 mole/L

[F][Sb-]([F])([F])([F])([F])[F].[K+] [Potassium fluoroantimonate]
Solubility in Water (pH 7): 3.7 × 10^0 mole/L

[F][Nb-2]([F])([F])([F])([F])([F])[F].[K+].[K+] [Potassium heptafluoroniobate]
Solubility in Water (pH 7): 0.26 mol/L

[F][Ta-2]([F])([F])([F])([F])([F])[F].[K+].[K+] [Potassium heptafluorotantalate]
Solubility in Water (pH 7): 0.3 mol/L

[F-].[F-].[F][Hf]([F])([F])[F].[K+].[K+] [Potassium hexafluorohafnate]
Solubility in Water (pH 7): 0.13 mol/L

F[Si-2](F)(F)(F)(F)F.[K+].[K+] [Potassium hexafluorosilicate]
Solubility in Water [1]: 0.0055 mol/L

[F-].[F-].[F-].[F-].[F-].[F-].[K+].[K+].[Sn+4] [Potassium hexafluorostannate]
Solubility in Water (pH 7): 0.128 mol/L

[F][Ti-2]([F])([F])([F])([F])[F].[K+].[K+] [Potassium hexafluorotitanate]
Solubility in Water (pH 7): 0.06 mol/L

[F][Zr-2]([F])([F])([F])([F])[F].[K+].[K+] [Potassium hexafluorozirconate]
Solubility in Water (pH 7): 0.0812 mol/L

[K+].[K+].[O]=[Mo](=[O])([O-])[O-] [Potassium molybdate]
Solubility in Water (pH 7): 775 mol/L

O=N[O-].[K+] [Potassium nitrite]
Solubility in Water (pH 7): 35 mol/L

[K+].[O-][I+3]([O-])([O-])[O-] [Potassium periodate]
Solubility in Water (pH 7): 0.029 mol/L

[K+].[K+].[O]=[Sn]([O-])[O-] [Potassium stannate]
Solubility in Water (pH 7): 3.7 × 10^0 mole/L

[K+].[O-2].[O-2].[O-2].[Ta+5] [Potassium tantalate]
Solubility in Water (pH 7): 0.005 mol/L

O=[Te](=O)([O-])[O-].[K+].[K+] [Potassium tellurate]
Solubility in Water (pH 7): 0.01 mol/L

F[B-](F)(F)F.[K+] [Potassium tetrafluoroborate]
Solubility in Water (pH 7): 0.035 mol/L

CCC[N+](CCC)(CCC)CCC.[O-][Cl+3]([O-])([O-])[O-] [Pr4N^+ perchlorate]
Solubility in Water (pH 7): 0.1 mol/L

O=[Se](=O)(O)O [Selenic acid]
Solubility in Water (pH 7): 60 wt. %

F[Si-2](F)(F)(F)(F)F.[Ag+].[Ag+] [Silver (I) hexafluorosilicate]
Solubility in Water (pH 7): 1 × 10^0 mole/L
